Measurements as given in publication PMC4721062, “Oxadiazole-2-oxides may have other functional targets, in addition to SjTGR, through which they cause mortality in Schistosoma japonicum” (Parasites & Vectors, 2016).
Where two headings read alike, the source gives them in different places.

What was measured:
[1] = Cytotoxicity assay on Hela cells (MTT); type: cell-based; settings: human
Experimental: Cytotoxicity assays were performed using Hela cells. Cells in the exponential growth phase were collected by centrifugation and a concentration of 4–5 × 10^4/mL was created. 100 μL of the cell suspension was added to each well of a 96-well plate and cultured overnight at 37 °C in a humid atmosphere with 5 % CO2. Oxadiazole-2-oxides (at 10, 20, 40, 80 and 160 μM) were added. Each concentration was assayed in triplicate, and control wells (no cells and no drugs) were assayed at the same time. The “no cell” control wells only contained RPMI 1640 medium, MTT, DMSO, and oxadiazole-2-oxides. The “no drug” control wells contained the Hela cells, RPMI 1640 medium, MTT and DMSO. The cells were cultured for 48 h at 37 °C in a humid atmosphere with 5 % CO2. Then, 20 μL of 5 mg/mL MTT was added to each well and the culture conditions were maintained for 4 h. After this point, the medium was removed and 150 μL DMSO was added into each well to dissolve any crystallisation. The value of absorbance at 570 nm of each well was measured (at 570 nm) with a microplate reader to assess the toxic effect of the oxadiazole-2-oxides on the vertebrate cells.

adult S. japonicum = assay: microbe, parasite or virus in culture; type: cell-based; settings: adult worms
Text: ICR mice (20–22 g), were obtained from the Shanghai Sub-Center of Experimental Animals, Chinese Academy of Sciences. They were maintained at the Department of Experimental Animals, Jiangsu Institute of Parasitic Diseases. To infect each mouse, its abdominal skin was exposed to 50 S. japonica cercariae. All of the mice were executed to collect S. japonica adult worms, through portal vein perfusion, 35 days post-infection. The adult S. japonica collected were washed with RPMI 1640 medium and then kept in RPMI 1640 medium (pH 7.5) with HEPES 20 mM, penicillin (100 IU/mL), streptomycin ([…]) and 10 % fetal bovine serum. Then, two pairs of adult worms were transferred into each well of a 24-well culture plate, with 2 mL of the same medium. The worms were cultured at 37 °C in a humid atmosphere with 5 % CO2.
Adult worms were cultured in a 24-well culture plate for 30–60 min at 37 °C, in a humid atmosphere with 5 % CO2. Then, oxadiazole-2-oxides at different concentrations (10, 25, 50, 100 μM) were added. Equal volumes of RPMI 1640 or DMSO were applied as negative controls, while PZQ was applied as a positive control. The adult worm mobility and parasite survival rates were monitored using an inverted phase contrast microscope, at 24, 48 and 72 h. Parasite death was defined as there being no motor activity during 2 min of continuous observation, and morphological and tegumental alterations. All assays were repeated three times.
^b Data collected by visual examination of worm movement and shape; n.e. […] The data presented are the average of three independent experiments.

recombinant SjTGR = target: T1, recombinant SjTGR (Schistosoma japonicum, UniProt B5THG7); assay: Inhibition of TrxR activity of recombinant SjTGR (DTNB assay); type: biochemical; settings: IC50 of SjTGR, 50 nM SjTGR, 1 mM NADPH, 15 min preincubation, DTNB reduction
T1 sequence (B5THG7 1-596): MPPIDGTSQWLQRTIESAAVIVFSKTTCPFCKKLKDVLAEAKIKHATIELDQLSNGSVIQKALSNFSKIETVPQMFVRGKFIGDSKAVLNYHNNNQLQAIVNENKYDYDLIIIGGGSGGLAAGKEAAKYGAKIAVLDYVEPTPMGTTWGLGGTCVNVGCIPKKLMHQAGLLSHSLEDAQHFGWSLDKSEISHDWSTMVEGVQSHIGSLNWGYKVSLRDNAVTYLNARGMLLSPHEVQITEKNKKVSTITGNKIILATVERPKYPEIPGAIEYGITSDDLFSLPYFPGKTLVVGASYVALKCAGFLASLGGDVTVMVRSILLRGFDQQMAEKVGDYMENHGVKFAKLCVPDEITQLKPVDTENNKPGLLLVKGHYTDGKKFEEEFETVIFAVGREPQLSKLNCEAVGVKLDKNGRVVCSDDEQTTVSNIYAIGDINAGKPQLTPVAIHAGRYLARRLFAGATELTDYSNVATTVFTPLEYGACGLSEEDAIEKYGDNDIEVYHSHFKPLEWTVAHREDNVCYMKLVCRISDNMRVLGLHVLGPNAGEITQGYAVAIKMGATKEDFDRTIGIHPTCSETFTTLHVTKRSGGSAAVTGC
Experimental: The purified recombinant SjTGR proteins were produced according to the method described by Song et al.. The inhibition of TrxR activity by the recombinant SjTGR was performed as reported by Rai et al.. Briefly, 50 nM SjTGR and 1 mM NADPH were incubated with different concentrations of oxadiazole-2-oxides (2, 4, 6, 10, 20 μM) for 15 min at room temperature. Then, potassium phosphate buffer (pH 7.4) containing 10 mM EDTA, 100 μM NADPH, and 3 mM DTNB was added to start the reaction. The increase of absorbance at 412 nm was monitored during the first 2 min. All assays were done in triplicate.
50 nM SjTGR and 1 mM NADPH were incubated with different concentrations of oxadiazole-2-oxides (2, 4, 6, 10, 20 μM) for 15 min at room temperature. Then, potassium phosphate buffer (pH 7.4) containing 10 mM EDTA, 100 μM NADPH, 3 mM DTNB was added to start the reaction. The increase in absorbance at 412 nm was monitored during the first 2 min. All assays were done in triplicate. Results shown are the mean ± SD (n = 3)

[2] = test system: adult S. japonicum in mice; assay: Treatment of infected mice at adult worm stage; type: in vivo, Schistosoma japonicum (ICR mice)
Experimental: (§1) The abdominal skin of each mouse (ICR, female, 22–24 g) was exposed to 20 S. japonica cercariae (as described above). The mice were intraperitoneally injected with 10 mg/kg oxadiazole-2-oxides daily for 5 days, beginning either 7 or 35 days post-infection. Control mice were treated with 10 mg/kg of the carrier medium. All mice were sacrificed 42 days post-infection. The worm burden of each mouse was confirmed by counting the number of worms observed from a portal vein perfusion. The mouse livers were digested overnight with 5 % potassium hydroxyl solution at 37 °C and the eggs in the liver tissue were counted under an inverted phase contrast microscope. The worm and egg reduction rates were calculated using the following formulas: Wormreductionrate%=meannumberofadultwormspermouseincontrolgroup−meannumberofadultwormspermouseinexperimentalgroup/meannumberofadultwormspermouseincontrolgroup. Eggreductionrate%=meannumberofeggspermouseincontrolgroup−meannumberofeggspermouseinexperimentalgroup/meannumberofeggspermouseincontrolgroup.

[3] = test system: juvenile S. japonicum in mice; assay: Treatment of infected mice at juvenile worm stage; type: in vivo, Schistosoma japonicum (ICR mice); settings: 10 mg/kg i.p. daily for 5 days from day 7 post-infection
Experimental: as §1

juvenile S. japonicum = assay: microbe, parasite or virus in culture; type: cell-based; settings: juvenile worms
Experimental: Infected Oncomelania hupensis, provided by the Department of Snail Biology, Jiangsu Institute of Parasitic Diseases, were incubated at 25–28 °C, under illumination, for 2 h to hatch S. japonicum cercariae. The cercariae were collected from the water surface with clean cover glass and placed into a centrifuge tube using pre cooled RPMI 1640. Centrifugation was performed for 1 min at 1500 rpm, and then the steps above were repeated. After centrifugation, the supernatant solution was removed. The cercariae at the bottom were washed twice and resuspended with RPMI 1640. Approximately 20–30 cercariae (1 mL of the resuspension medium) were added to one well in a 24-well culture plate. They were incubated overnight at 37 °C with 5 % CO2. The survival rates and number of tails shed were observed under an inverted microscope. Cercariae that had shed their tails were used as juvenile S. japonicum.
20–30 juvenile worms were transferred into each well of a 24-well culture plate, containing 2 mL RPMI 1640 medium, 20 mM HEPES, 100 IU/mL penicillin, […] streptomycin and 10 % fetal bovine serum. Then, oxadiazole-2-oxides (2, 5, 10, and 50 μM), diluted with the RPMI 1640 medium, were added to their allocated wells. The worms in the negative control wells were treated with equal volumes of RPMI 1640 or DMSO and worms treated with AS were observed as positive controls. The juvenile worms’ survival rates were observed under an inverted phase contrast microscope (Leica, Wetzlar, Germany) at 24, 48 and 72 h. Parasite death was defined as an unclear internal structure of the juvenile worms, with incomplete tegument and contents overflowing radially, or unclear internal structure with complete tegument, but having no motor activity during 1 min of continuous observation. All assays were repeated three times.
^b Data collected by visual examination of worm movement and shape; % D = The number of worms dead / The total number of worms observed, and worms dead judged by unclear internal structure of juvenile worms with uncompleted tegument, and contents overflowing radially, or unclear internal structure with complete tegument, but having no motor activity during 1 min of continuous observation. The data presented are the average of three independent experiments.

[4] = Schistosoma japonicum, 24 h, read-out: Killing activity 24hr
[5] = Schistosoma japonicum, 48 h, read-out: Killing activity 48hr
[6] = Schistosoma japonicum, 72 h, read-out: Killing activity 72hr
[7] = mice, 10 mg/kg i.p. daily for 5 days from day 35 post-infection, sacrificed day 42

## O=C(C1CCCCC1)N1CC(=O)N2CCc3ccccc3C2C1 (centres unmarked) [PZQ, praziquantel, reference compound]
[1]
  viability at 72 h, 80 µM: 76%
Adult S. japonicum; Schistosoma japonicum, 25 μM, 24 h, read-out: Killing activity 24hr
  killing at 25 µM: 25%
Adult S. japonicum; Schistosoma japonicum, 25 μM, 24 h, read-out: Mortality of adult worms
  mortality at 25 µM: 25 ± 7.8%
Adult S. japonicum; Schistosoma japonicum, 25 μM, 48 h, read-out: Killing activity 48hr
  killing at 25 µM: 25%
Adult S. japonicum; Schistosoma japonicum, 25 μM, 72 h, read-out: Killing activity 72hr
  killing at 25 µM: 62.5%
Adult S. japonicum; [4]
  killing at 50 µM: 25%
  killing at 100 µM: 37.5%
Adult S. japonicum; [5]
  killing at 50 µM: 37.5%
  killing at 100 µM: 50%
Adult S. japonicum; [6]
  killing at 50 µM: 62.5%
  killing at 100 µM: 87.5%
Adult S. japonicum; 10 μM, 24 h
  Killing activity 24hr: 25.0%D
Adult S. japonicum; 10 μM, 48 h
  Killing activity 48hr: 25.0%D
Adult S. japonicum; 10 μM, 72 h
  Killing activity 72hr: 37.5%D
Recombinant SjTGR
  IC50: > 20 µM
[2]; mice treated at adult worm stage (data not shown)
  Reduction in the female worms: 60.5%
[2]; [7]
  Number of eggs per gram of liver (Mean ± SD): 3721.5 ± 1600.6
  Number of worms (Mean ± SD): 3.3 ± 1.7
[2]; mice, 10 mg/kg i.p. daily for 5 days from day 35 post-infection, versus control
  Egg reduction rate: 53.7 (P < 0.01^*) %
[2]; mice, 10 mg/kg i.p. daily for 5 days from day 35 post-infection, versus control, 10 mg/kg
  Worm reduction rate: 72.3 (P < 0.01^*) %

## C[C@@H]1CC[C@H]2[C@@H](C)C(=O)O[C@@H]3O[C@@]4(C)CC[C@@H]1[C@]32OO4 [AS, artemisinin, reference compound]
[3]; sacrificed day 42
  Number of eggs per gram of liver (Mean ± SD): 2,932.2 ± 1,149.3
  Number of worms (Mean ± SD): 2.3 ± 1.0
[3]; versus control
  Egg reduction rate: 63.5 (P < 0.01^*) %
[3]; versus control, 10 mg/kg
  Worm reduction rate: 78.5 (P < 0.01^*) %
Recombinant SjTGR
  IC50: > 20 µM
Juvenile S. japonicum; [4]
  killing at 2 µM: 16.2%
  killing at 5 µM: 34.1%
Juvenile S. japonicum; [5]
  killing at 2 µM: 24.3%
  killing at 5 µM: 36.4%
Juvenile S. japonicum; [6]
  killing at 2 µM: 32.4%
  killing at 5 µM: 40.9%
Juvenile S. japonicum; Schistosoma japonicum, 50 μM, 24 h, read-out: Killing activity 24hr
  killing at 50 µM: 51.3%
Juvenile S. japonicum; Schistosoma japonicum, 50 μM, 24 h, read-out: Mortality of juvenile worms
  mortality at 50 µM: 51.3 ± 5.1%
Juvenile S. japonicum; Schistosoma japonicum, 50 μM, 48 h, read-out: Killing activity 48hr
  killing at 50 µM: 66.7%
Juvenile S. japonicum; Schistosoma japonicum, 50 μM, 72 h, read-out: Killing activity 72hr
  killing at 50 µM: 76.9%
Juvenile S. japonicum; 10 μM, 24 h
  Killing activity 24hr: 47.6%D
Juvenile S. japonicum; 10 μM, 48 h
  Killing activity 48hr: 66.7%D
Juvenile S. japonicum; 10 μM, 72 h
  Killing activity 72hr: 71.4%D
